Among the data in patent US6506766B1 (Abbott Laboratories, priority 1998, dated 2003) are Ki values, retold here.

Usually Ki stands for a dissociation constant, usually derived from enzyme kinetics or from competition with a known ligand.

Assay [1] concerns the target T1, human glucocorticoid receptor-α [GRX] isoform (Homo sapiens, UniProt P04150).
T1 construct: host or cells: insect SF21 cells (baculovirus)
T1 sequence (P04150 1-777): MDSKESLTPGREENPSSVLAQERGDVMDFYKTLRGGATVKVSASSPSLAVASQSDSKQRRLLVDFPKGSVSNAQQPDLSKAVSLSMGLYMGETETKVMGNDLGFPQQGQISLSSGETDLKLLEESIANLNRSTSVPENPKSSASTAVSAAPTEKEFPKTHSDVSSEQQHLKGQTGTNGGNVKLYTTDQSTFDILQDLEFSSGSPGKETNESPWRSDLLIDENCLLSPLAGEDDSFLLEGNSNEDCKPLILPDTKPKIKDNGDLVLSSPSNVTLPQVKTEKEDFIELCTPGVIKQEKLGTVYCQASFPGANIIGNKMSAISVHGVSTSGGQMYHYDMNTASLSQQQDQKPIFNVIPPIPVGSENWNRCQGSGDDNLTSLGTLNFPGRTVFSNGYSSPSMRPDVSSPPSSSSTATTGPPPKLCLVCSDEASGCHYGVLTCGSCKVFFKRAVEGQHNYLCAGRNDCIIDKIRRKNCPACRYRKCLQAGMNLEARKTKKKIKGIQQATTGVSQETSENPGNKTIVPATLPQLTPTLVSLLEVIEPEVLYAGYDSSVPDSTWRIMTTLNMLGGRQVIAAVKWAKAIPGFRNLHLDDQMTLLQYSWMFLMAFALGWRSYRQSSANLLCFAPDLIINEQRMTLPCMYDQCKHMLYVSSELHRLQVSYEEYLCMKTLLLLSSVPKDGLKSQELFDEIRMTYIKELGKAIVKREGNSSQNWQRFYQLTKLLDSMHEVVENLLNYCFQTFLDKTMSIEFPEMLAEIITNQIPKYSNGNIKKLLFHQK
The assay is described as follows: Radioligand binding with human glucocorticoid receptor cytosol ([3H]-dexamethasone competition). Particulars: GRX cytosol expressed in insect SF21 cells, [3H]-Dex ~0.9 nM, 4° C. overnight; Ki by Cheng-Prusoff, KL ~[…]; read-out: Ki (nM) GR.
Text: Briefly, cytosol preparations of human glucocorticoid receptor-α [GRX] isoform and human progesterone receptor-A [PRA] isoform were obtained from Ligand Pharmaceuticals (San Diego, Calif.). Both receptor cDNAs were cloned into baculovirus expression vectors and expressed in insect SF21 cells. [^3H]-dexamethasone (Dex, specific activity 82-86 Ci/mmole) and [^3H]-progesterone (Prog, specific activity 97-102 Ci/mmol) were purchased from Amersham Life Sciences (Arlington Heights, Ill.). Glass fiber type C multiscreen MAFC NOB plates were from Millipore (Burlington, Mass.). Hydroxyapatide Bio-Gel HTP gel was from Bio-Rad Laboratories (Hercules, Calif.). Tris(hydroxymethyl)aminomethane (Tris), ethylenediaminetetraacetic acid (EDTA), glycerol, dithiothreitol (DTT) and sodium moylybdate were obtained from Sigma Chemicals (St. Louis, Mo.). Microscint-20 scintillation fluid was from Packard Instrument (Meriden, Conn.).
Stock solutions (32 mM) of compounds were prepared in dimethylsulfoxide (DMSO), and 50× solutions of test compounds were prepared from the 32 mM solution with a 50:50 mixture of DMSO/ethanol. The 50× solution was then diluted with binding buffer that contained 10 mM Tri-HCl, 1.5 mM EDTA, 10% glycerol, 1 mM DTT, 20 mM sodium molybdate, pH 7.5 @4° C. 1% DMSO/ethanol was present in the binding assay.
For GR binding assays, [^3H]-Dex (˜35,000 dpm (˜0.9 nM)), GRX cytosol (˜35 μg protein), test compounds and binding buffer were mixed in a total volume of 200 μL and incubated at 4° C. overnight in a plate shaker. Specific binding was defined as the difference between binding of [^3H]Dex in the absence and in the presence of 1 μM unlabelled Dex.
After an overnight incubation, 50 μL of hydroxyapatite (25% weight/volume) slurry were added to each well and plates were incubated for 10 min at 0° C. in a plate shaker. Plates were suctioned with a Millipore vacuum manifold and each well was rinsed with 300 μL of ice-cold binding buffer. A 250 μL aliquot of Packard Microscint-20 was added to each well and the wells were shaken at room temperature for 20 minutes. The amount of radioactivity was determined with a Packard TopCount plate reader.
The Ki of test compounds was determined using the Cheng-Prusoff equation Ki=IC50/(1+[L*]/[KL]) where L* is the concentration of radioligand and KL is the dissociation constant of the radioligand determined from saturation analysis.

Assay [2] has as its target T2, human progesterone receptor-A [PRA] isoform (Homo sapiens, UniProt P06401).
T2 construct: host or cells: insect SF21 cells (baculovirus)
T2 sequence (P06401 1-769 isoform P06401-2): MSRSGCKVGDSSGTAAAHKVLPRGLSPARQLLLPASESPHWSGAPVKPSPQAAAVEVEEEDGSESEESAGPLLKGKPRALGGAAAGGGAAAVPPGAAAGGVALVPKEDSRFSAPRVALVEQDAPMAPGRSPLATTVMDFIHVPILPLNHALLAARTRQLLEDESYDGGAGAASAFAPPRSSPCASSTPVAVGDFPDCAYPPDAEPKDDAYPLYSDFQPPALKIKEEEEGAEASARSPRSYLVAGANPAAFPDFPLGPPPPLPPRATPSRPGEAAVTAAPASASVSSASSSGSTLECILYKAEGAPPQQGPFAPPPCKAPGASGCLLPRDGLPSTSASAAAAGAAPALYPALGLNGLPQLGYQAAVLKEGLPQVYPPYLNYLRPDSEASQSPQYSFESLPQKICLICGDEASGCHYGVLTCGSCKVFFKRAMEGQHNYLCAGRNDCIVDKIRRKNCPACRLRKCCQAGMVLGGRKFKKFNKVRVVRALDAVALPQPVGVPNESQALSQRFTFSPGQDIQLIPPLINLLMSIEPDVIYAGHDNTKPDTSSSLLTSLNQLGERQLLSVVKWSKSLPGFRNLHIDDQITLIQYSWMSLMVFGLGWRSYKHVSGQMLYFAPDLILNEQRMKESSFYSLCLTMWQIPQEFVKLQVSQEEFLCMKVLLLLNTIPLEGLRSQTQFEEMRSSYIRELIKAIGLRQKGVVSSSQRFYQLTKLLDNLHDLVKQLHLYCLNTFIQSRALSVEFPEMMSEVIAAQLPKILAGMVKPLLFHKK
The assay is described as follows: Radioligand binding with human progesterone receptor cytosol ([3H]-progesterone competition). As to conditions: PRA cytosol expressed in insect SF21 cells, [3H]Prog ~0.8 nM, 4° C. overnight; Ki by Cheng-Prusoff, KL ~4.5 nM; read-out: Ki (nM) PR.

Consider `COc1c(O)ccc2c1-c1ccc3c(c1C(C(C)C)O2)C(C)=CC(C)(C)N3` (centres unmarked) [Example 267, 2,5-Dihydro-9-hydroxy-10-methoxy-2,2,4-trimethyl-5-(2-propyl)-1H-[1]benzopyrano[3,4-f]quinoline], for which the Ki in assay [1] was 0.79 nM; in assay [2], 938 nM.
In the same order, the values of `COc1ccc(C2Oc3ccc(O)c(OC)c3-c3ccc4c(c32)C(C)=CC(C)(C)N4)s1` (centres unmarked) [Example 268, 2,5-Dihydro-9-hydroxy-10-methoxy-2,2,4-trimethyl-5-(5-methoxy-2-thienyl)-1H-[1]benzopyrano[3,4-f]quinoline] are 0.84 nM and 486 nM.
Regarding `COc1c(O)ccc2c1-c1ccc3c(c1[C@H]([C@@H]1C=CCCC1)O2)C(C)=CC(C)(C)N3` [Example 272, (−)(5S,3′S)2,5-Dihydro-9-hydroxy-10-methoxy-2,2,4-trimethyl-5-(3-cyclohexenyl)-1H-[1]benzopyrano[3,4-f]quinoline], the inhibition constant Ki in assay [1] worked out at 0.39 nM; in assay [2] it was 66.4 nM.
For `COc1c(O)ccc2c1-c1ccc3c(c1[C@H]([C@H]1C=CCCC1)O2)C(C)=CC(C)(C)N3` [Example 273], the Ki worked out at 0.56 nM in assay [1] and 35.8 nM in assay [2].
The like results for `CCC1=C[C@@H]([C@H]2Oc3ccc(O)c(OC)c3-c3ccc4c(c32)C(C)=CC(C)(C)N4)CCC1` [Example 277] were, in that order, 11.3 nM and 272 nM.
In the same order, the values of `COc1c(O)ccc2c1-c1ccc3c(c1C(C1CCCCC1)O2)C(C)=CC(C)(C)N3` (centres unmarked) [Example 278, 2,5-Dihydro-9-hydroxy-10-methoxy-2,2,4-trimethyl-5-cyclohexyl-1H-[1]benzopyrano[3,4-f]quinoline] are 1.1 nM and 533 nM.
In the case of `COc1c(O)ccc2c1-c1ccc3c(c1CO2)C(C)=CC(C)(C)N3` [Example 279, 2,5,5-Trihydro-9-hydroxy-10-methoxy-2,2,4-trimethyl-1H-[1]benzopyrano[3,4-f]quinoline], the inhibition constant Ki in assay [1] is 12.4 nM; in assay [2], 1900 nM.
The like results for `C=C(CO)CC1Oc2ccc(O)c(OC)c2-c2ccc3c(c21)C(C)=CC(C)(C)N3` (centres unmarked) [Example 280, 2,5-Dihydro-9-hydroxy-10-methoxy-2,2,4-trimethyl-5-(2-hydroxymethyl-3-propenyl)-1H-[1]benzopyrano[3,4-f]quinoline] were, in that order, 1.6 nM and no less than 10000 nM.
The like results for `COC(=O)CC1Oc2ccc(O)c(OC)c2-c2ccc3c(c21)C(C)=CC(C)(C)N3` (centres unmarked) [Example 281, Methyl 2-[2,5-Dihydro-9-hydroxy-10-methoxy-2,2,4-trimethyl-1H-[1]benzopyrano[3,4-f]-5-quinoline]acetate] were, in that order, 0.84 nM and 526 nM.
With `C/C=C\CC1Oc2ccc(O)c(OC)c2-c2ccc3c(c21)C(C)=CC(C)(C)N3` (centres unmarked) [Example 282, (Z)2,5-Dihydro-9-hydroxy-10-methoxy-2,2,4-trimethyl-5-(2-butenyl)-1H-[1]benzopyrano[3,4-f]quinoline], the Ki in assay [1] worked out at 0.5 nM; in assay [2], 42 nM.
The like results for `COc1c(O)ccc2c1-c1ccc3c(c1C(CC=C(C)C)O2)C(C)=CC(C)(C)N3` (centres unmarked) [Example 283, 2,5-Dihydro-9-hydroxy-10-methoxy-2,2,4-trimethyl-5-(3-methyl-2-butenyl)-1H-[1]benzopyrano[3,4-f]quinoline] were, in that order, 1.1 nM and 60.4 nM.
Regarding `COc1c(O)ccc2c1-c1ccc3c(c1[C@@H]([C@H]1C=CCCC1)O2)C(C)=CC(C)(C)N3` [Example 285], the Ki in assay [1] is 436 nM; in assay [2], 3760 nM.
As to `COc1c(O)ccc2c1-c1ccc3c(c1[C@@H]([C@@H]1C=CCC1)O2)C(C)=CC(C)(C)N3` [Example 286], the Ki in assay [1] was found to be 64 nM; in assay [2], 3030 nM.
`COc1c(O)ccc2c1-c1ccc3c(c1[C@@H]([C@H]1C=CCC1)O2)C(C)=CC(C)(C)N3` [Example 287]: the values for the Ki in assay [1] and in assay [2] were 346 nM and 3500 nM, respectively.
The like results for `C=C(C)CC1Oc2ccc(O)c(OC)c2-c2ccc3c(c21)C(C)=CC(C)(C)N3` (centres unmarked) [Example 289, 2,5-Dihydro-9-hydroxy-10-methoxy-2,2,4-trimethyl-5-(2-methyl-3-propenyl)-1H-[1]benzopyrano[3,4-f]quinoline] were, in that order, 0.73 nM and 260 nM.
In the same order, the values of `C=CCC1Oc2ccc(OC)c(OC)c2-c2ccc3c(c21)C(C)=CC(C)(C)N3` (centres unmarked) [Example 290, 9,10-Dimethoxy-5-(3-propenyl)-2,2,4-trimethyl-1H-2,5-dihydro-[1]benzopyrano[3,4-f]quinoline] are 12.1 nM and 611 nM.
For the compound `C=CCC1Oc2ccc(OCC)c(OC)c2-c2ccc3c(c21)C(C)=CC(C)(C)N3` (centres unmarked) [Example 292, 10-Methoxy-9-ethoxy-5-(3-propenyl)-2,2,4-trimethyl-1H-2,5-dihydro-[1]benzopyrano[3,4-f]quinoline], the figures for the Ki in assay [1] and in assay [2] were 487 nM and 8340 nM, respectively.
With `C#CCOc1ccc2c(c1OC)-c1ccc3c(c1C(CC=C)O2)C(C)=CC(C)(C)N3` (centres unmarked) [Example 294, 10-Methoxy-9-(3-propynyloxy)-5-(3-propenyl)-2,2,4-trimethyl-1H-2,5-dihydro[1]benzopyrano[3,4-f]quinoline], the inhibition constant (Ki) in assay [1] is 13.8 nM; in assay [2], 1810 nM.
Consider `C=CCC1Oc2ccc(OC(C)=O)c(OC)c2-c2ccc3c(c21)C(C)=CC(C)(C)N3` (centres unmarked) [Example 295, 2,5-Dihydro-9-acetoxy-10-methoxy-2,2,4-trimethyl-5-(2-propenyl)-1H-[1]benzopyrano[3,4-f]quinoline], for which the Ki in assay [1] is 0.67 nM; in assay [2], 59.3 nM.
The like results for `C=CCC1Oc2ccc(OC(=O)CCC(=O)N(C)C)c(OC)c2-c2ccc3c(c21)C(C)=CC(C)(C)N3` (centres unmarked) [Example 296, 2,5-Dihydro-9-(4-N,N-dimethylamino-4-oxo-butanoyloxy)-10-methoxy-2,2,4-trimethyl-5(2-propenyl)-1H-[1]benzopyrano[3,4-f]quinoline] were, in that order, 0.63 nM and 476 nM.
In the same order, the values of `COc1ccc(Br)c2c1-c1ccc3c(c1C(C1C=CCCC1)O2)C(C)=CC(C)(C)N3` (centres unmarked) [Example 297] are 4.7 nM and 4840 nM.
In the same order, the values of `C=CCC1Oc2c(Br)ccc(OC)c2-c2ccc3c(c21)C(C)=CC(C)(C)N3` (centres unmarked) [Example 298, 10-Methoxy-7-bromo-5-(3-propenyl)-2,2,4-trimethyl-1H-2,5-dihydro-[1]benzopyrano[3,4-f]quinoline] are 4.1 nM and no less than 10000 nM.
As for `COc1ccc(Br)c2c1-c1ccc3c(c1C(C1C=C(C)CCC1)O2)C(C)=CC(C)(C)N3` (centres unmarked) [Example 299], the results for the Ki in assay [1] and in assay [2] were 5.4 nM and 2900 nM, respectively.
The like results for `C=CCC1Oc2ccc(Br)c(OC)c2-c2ccc3c(c21)C(C)=CC(C)(C)N3` (centres unmarked) [Example 300, 10-Methoxy-9-bromo-5-(3-propenyl)-2,2,4-trimethyl-1H-2,5-dihydro-[1]benzopyrano[3,4-f]quinoline] were, in that order, 5.3 nM and 34.4 nM.
As to `C=CCC1Oc2c(Br)cc(Br)c(OC)c2-c2ccc3c(c21)C(C)=CC(C)(C)N3` (centres unmarked) [Example 301, 7,9-Dibromo-10-methoxy-5-(3-propenyl)-2,2,4-trimethyl-1H-2,5-dihydro[1]benzopyrano[3,4-f]quinoline], the inhibitory constant (Ki) in assay [1] came to 16 nM; in assay [2], 113 nM.
